Results from US10682371B2, “Small molecule conjugates specifically activated in tumor microenvironment for targeting and use thereof” (priority 2014, dated 2020).
Where two headings read alike, the source gives them in different places.

Columns and labels:
[1] = system: Human breast cancer MDA-MB231 cells; assay type: in vivo, nude mice; conditions: MDA-MB231, nude mice, IV 13.2 μmol/kg once weekly for four weeks
Description: (§1) 1) Human breast cancer MDA-MB231 cells were purchased from American type culture collection (ATCC) and identified according the specification provided by ATCC. Cells were cultivated in Dulbecco's minimum essential medium (DMEM culture medium) containing 10% fetal bovine serum at 37° C. and 5% CO2. The cells were passaged for every three days and cells within the 15th passage were used.
2) Production of tumor. 5×10^6 MDA-MB231 cells were subcutaneously injected to the back of the nude mice. Mice were randomly grouped after the tumor reached at least 100 mm^3. Then treatment began and the day on which the treatment began was day 1.
3) Course of treatment. […] The drugs were administered once weekly for four weeks.
When R1 is 2-(2-Methoxyethoxy)Acetyl, and R3 is Ala, activation study and efficacy study were carried out by using compounds having different cleavable linker. The study methods are identical to those in Examples 10, 11 and 12. The in vitro activation efficiency was tested by asparagine endopeptidase and the tumor inhibition rate was tested by using human breast cancer MDA-MB231 model. […]

D121 lung tumor cells = assay type: in vivo, C57 mice; conditions: Day 18
Description: 1) D121 lung tumor cells were purchased from ATCC. Cells were cultivated in DMEM culture solution containing 10% fetal bovine serum at 37° C. and 5% CO2. The cells were passaged for every three days and cells within the 15th passage were used.
(§2) 2) Tumor immunization. 5×10^5 D121 lung cancer cells (purchased from ATCC) which were killed by irradiation were intraperitoneally injected to mice. The mice were injected for 3 times, once every two weeks. After immunization, mice were injected with tumor cells and the drugs were administered weekly for 4 weeks.
3) Production of tumor. At day 32, 10^6 live lung tumor cells were subcutaneously injected to the back of the C57 mice immunized by tumor. Treatment began when the tumor grew to 0.3-0.4 cm.
as §2, with “4 weeks. In table 16 below the immune group was immuned with D121 lung tumor cells and the group without dead D121 lung tumor cells was injected with physiological saline as controls.” for “4 weeks.”
3) Production of tumor. After immunization (4 weeks later), 10^6 live lung tumor cells were subcutaneously injected to the back of the C57 mice immunized by tumor. Treatment began when the tumor grew to 0.3-0.4 cm. Tumor size (mm^3) were noted and tumor inhibition rates were calculated.
as §2, with “4 weeks. In the table below the immune group was immuned with D121 lung tumor cells and the group without dead D121 lung tumor cells was injected with physiological saline as controls.” for “4 weeks.”
3) Production of tumor. At day 32, 10^6 live D121 lung tumor cells were subcutaneously injected to the back of the C57 mice immunized by tumor. Treatment began when the tumor grew to 0.3-0.4 cm.
1) D121 lung tumor cells were purposed from ATCC. Cells were cultivated in DMEM culture solution containing 10% fetal bovine serum at 37° C. and 5% CO2. The cells were passaged for every three days and cells within the 15th passage were used.

tumor CD8+ T cells = assay type: in vivo, C57 mice
Description: (§3) 4) Analysis on tumor CD8+ T cells. The tumor tissue was homogenated and individual cells in the tumor were filtered, separated and washed by buffer twice, then cultivated with the leucocyte common antigen CD45-PE and CD8-FITC marked antibodies for 1 hour at ambient temperature. The cells were washed by phosphate buffer containing 1% fetal bovine serum twice and then analyzed for the ratio of the T lymphocyte antigen (CD8) positive cells in the leucocyte common antigen (CD45) positive cells by flow cytometry.
as §3, with “CD45-PE and T-lymphocyte antigen CD8-FITC marked” for “CD45-PE and CD8-FITC marked”, “flow cytometry. Increasement of the ratio indicates increased T lymphocyte cells and thus the animal immunity against the tumor was improved.” for “flow cytometry.”
as §3, with “cytometry. Increasement of the ratio indicates increased T lymphocyte cells and thus the animal immunity against the tumor was improved.” for “cytometry.”

[2] = system: Human prostate cancer PC-3 cells / Panc-1 cells; experiment: Tumor treatment in nude mice (PC-3 cells purchased, Panc-1 cells injected; Examples 22, 32, 42); assay type: in vivo; conditions: Table 38, nude mice, IV once weekly for four weeks, B1-B4 25 mg/kg, Docetaxel […]
Description: as §1, with “prostate” for “breast”, “PC-3” for “MDA-MB231”, “DMEM” for “Dulbecco's minimum essential medium (DMEM”, “solution” for “medium)”
2) Production of tumor. 5×10^6Panc-1 cells were subcutaneously injected to the back of the nude mice. Mice were randomly grouped after the tumor reached at least 100 mm^3. Then treatment began and the day on which the treatment began was day 1.
The control group was administered by physiological saline. Drugs were administered once weekly for four weeks.
According to the clinical application of B1, B2, B3 and B4, drugs were intravenously injected (IV). […] The control group was administered by physiological saline. Drugs were administered once weekly for four weeks.

[3] = system: Human prostate cancer PC-3 cells; experiment: Tumor treatment in nude mice, PC-3 model (Example 51); assay type: in vivo; conditions: Table 48, nude mice, PC-3, IV once weekly for four weeks, D1-D4 25 mg/kg, Docetaxel […]
Description: as §1, with “prostate” for “breast”, “PC-3” for “MDA-MB231”, “DMEM” for “Dulbecco's minimum essential medium (DMEM”, “solution” for “medium)”
2) Production of tumor. 5×10^6PC-3 cells were subcutaneously injected to the back of the nude mice. Mice were randomly grouped after the tumor reached at least 100 mm^3. Then treatment began and the day on which the treatment began was day 1.
According to the clinical application of D1, D2, D3 and D4, drugs were intravenously injected (IV). […]. The control group was administered by physiological saline. Drugs were administered once weekly for four weeks.

4T1 cells = experiment: BALB/C mice model for tumor metastasis (4T1, lung metastases); assay type: in vivo; conditions: BALB/C mice, 4T1, lung metastases day 27, IV every three days for 4 times
Description: as §1, with “4T1” for “Human breast cancer MDA-MB231”, “DMEM” for “Dulbecco's minimum essential medium (DMEM”, “solution” for “medium)”
2) Production of tumor metastasis. 10^6 […] were subcutaneously injected to the back of the BALB/C mice. Mice were randomly grouped after the tumor grew to about 1.5 cm. The subcutaneous tumor was removed by surgery and drug treatment began. Mice were killed after anesthesia on day 27. The whole lung was taken out and put into Bouin's solution for staining. The number of the tumor metastasized to lung was counted with anatomical microscope.
(§4) The control group was administered by physiological saline. Drugs were administered once for every three days for 4 times.
as §4
According to the clinical application of B1, B2, B3 and B4, drugs were intravenously injected (IV). […] The control group was administered by physiological saline. Drugs were administered once for every three days for 4 times.
According to the clinical application of D1, D2, D3 and D4, drugs were intravenously injected (IV). […] The control group was administered by physiological saline. Drugs were administered once for every three days for 4 times.

[4] = D121 immunized C57 mice, 13.2 μmol/kg weekly, PDL1 antibody 5 μg/kg where combined
[5] = D121 immunized C57 mice, 13.2 μmol/kg, ratio of CD8 positive cells in CD45 positive cells of tumor
[6] = Table 39, immunized C57 mice, D121, drugs 13.2 μmol/kg, PDL1-antibody 5 μg/kg, weekly for 4 weeks
[7] = Table 49, immunized C57 mice, D121, drugs 13.2 μmol/kg, PDL1 antibody 5 μg/kg, weekly for 4 weeks
[8] = Table 40, B1-B4 17.6 μmol/kg, Docetaxel 3 μmol/kg
[9] = Table 50, D1-D4 25 mg/kg, Docetaxel 4.2 mg/kg

Compound | Inhibitory rate on tumor (%) Day 10 [1] [%] | Size of tumor (mm^3) Day 10 [1] [mm^3] | Inhibitory rate on tumor (%) Day 24 [1] [%] | Size of tumor (mm^3) Day 24 [1] [mm^3] | Inhibitory rate on tumor Day 18 (D121 lung tumor cells; [4]) | Size of tumor (mm^3) Day 18 (D121 lung tumor cells; [4]) [mm^3] | CD8: D45 (%) (tumor CD8+ T cells; [5]) | further results
CC[C@@]1(O)C(=O)OCc2c1cc1n(c2=O)Cc2cc3ccccc3nc2-1 [camptothecin] | 15 | 258.45 ± 57.43 | 19 | 847.46 ± 157.56 | 34.47 | 889.56 ± 148.56 |  | CD8: CD45 (%) (tumor CD8+ T cells; [5]): 13.2%
CCCCCOC(=O)Nc1nc(=O)n([C@@H]2O[C@H](C)[C@@H](O)[C@H]2O)cc1F [capecitabine] | 26 | 225.53 ± 74.45 | 9 | 946.43 ± 275.86 | 29.75 | 953.65 ± 245.43 | 13.6 | 
COc1cccc2c1C(=O)c1c(O)c3c(c(O)c1C2=O)C[C@@](O)(C(C)=O)C[C@@H]3O[C@H]1C[C@H](N)[C@H](O)[C@H](C)O1 [daunorubicin] | 43 | 174.78 ± 78.43 | 17 | 864.01 ± 67.45 | 21.63 | 1063.86 ± 317.56 | 13.2 | 
Docetaxel [reference compound] |  |  |  |  |  |  |  | Size of tumor (mm^3) Day 18 (D121 lung tumor cells; [6]): 1242.30 ± 359.48 mm^3; inhibitory rate on tumor % Day 18 (D121 lung tumor cells; [6]): 23.33%; Size of tumor (mm^3) Day 18 (D121 lung tumor cells; [7]): 1268.64 mm^3; inhibitory rate on tumor % Day 18 (D121 lung tumor cells; [7]): 11.0%; CD8: CD45 (%) (tumor CD8+ T cells; Table 39, CD8 positive cells in CD45 positive cells of tumor, flow cytometry, drugs 13.2 μmol/kg, PDL1-antibody 5 μg/kg): 5.4%; CD8: CD45 (%) (tumor CD8+ T cells; Table 49, CD8 positive cells in CD45 positive cells of tumor, flow cytometry, drugs 13.2 μmol/kg, PDL1 antibody 5 μg/kg): 6.9%; Size of tumor (mm^3) Day 10 ([2]; Day 10): 254.75 ± 146.55 mm^3; inhibitory rate on tumor Day 10 ([2]; Day 10): 11.1; Size of tumor (mm^3) Day 24 ([2]; Day 24): 263.65 ± 184.67 mm^3; inhibitory rate on tumor Day 24 ([2]; Day 24): 30.7; Size of tumor (mm^3) Day 10 ([3]; Day 10): 168.66 ± 79.43 mm^3; inhibitory rate on tumor Day 10 ([3]; Day 10): 51.3; Size of tumor (mm^3) Day 24 ([3]; Day 24): 313.75 ± 157.42 mm^3; inhibitory rate on tumor Day 24 ([3]; Day 24): 57.3; Inhibitory rate on metastasis (4T1 cells; [8]): 32.5; Number of metastasized tumor (4T1 cells; [8]): 85 ± 17; Inhibitory rate on metastasis (4T1 cells; [9]): 89.7; Number of metastasized tumor (4T1 cells; [9]): 156 ± 24
